According to patent US9340572B2, “Taccalonolide microtubule stabilizers” (THE BOARD OF REGENTS OF THE UNIVERSITY OF TEXAS SYSTEM, priority 2011, dated 2016):
Where two headings read alike, the source gives them in different places. One block for each compound: values may come before it.

What was measured:
HeLa cells [1] = assay: Inhibition of cellular proliferation, SRB assay in HeLa cells; type: cell-based; conditions: for IC50: HeLa cells, SRB assay; for fold increase in potency on epoxidation at C22-C23: epoxide compared with parent taccalonolide
Method: The determination of IC50 values was performed on taccalonolide material after NMR analysis and subsequent lyophilization. Ethanol or DMSO was used as the vehicle for all cellular studies.
The antiproliferative potencies of the taccalonolides were evaluated in HeLa cells using the SRB assay. Several new taccalonolides with low nanomoloar potency were identified, Table 1.

HeLa cells [2] = assay: Interphase microtubule bundling by indirect immunofluorescence; type: cell-based; conditions: 18 h; 200 nM AF, 200 nM AI, 70 nM AJ
Method: FIGS. 2A-D—Effect of the taccalonolides on interphase cells. HeLa cells were treated for 18 h with vehicle (FIG. 2A), 200 nM taccalonolide AF (FIG. 2B), 200 nM taccalonolide AI (FIG. 2C), or 70 nM taccalonolide AJ (FIG. 2D). Interphase microtubule structures were visualized by indirect immunofluorescence using a β-tubulin antibody.
(§1) Cellular microtubules in interphase and mitotic HeLa cells were visualized using indirect immunofluorescence techniques as previously described (Tinley et al., 2003). […] Representative images of interphase and mitotic cells were acquired using a Nikon Eclipse 80i fluorescence microscope and compiled using NIS Elements AR 3.0 software.

HeLa cells [3] = assay: Mitotic spindle structures by indirect immunofluorescence; type: cell-based; conditions: 18 h; 125 nM AF, 200 nM AI, 35 nM AJ
Source text: FIGS. 4A-D—Effect of the taccalonolides on mitotic spindles. […] The microtubule structures in mitotic cells were visualized by indirect immunofluorescence using a β-tubulin antibody.
as §1
The effects of the taccalonolides on mitotic spindle structures were evaluated to test whether they caused mitotic spindle defects leading to cell cycle arrest. β-tubulin and DNA were visualized in HeLa cells by indirect immunofluorescence and DAPI staining, respectively. […] These mitotic cells contained multiple abnormal mitotic spindles, which is another common effect of microtubule stabilizing agents (FIGS. 4A-D).

[4] = test system: purified porcine brain tubulin; assay: Tubulin polymerization followed turbidimetrically; type: biochemical; conditions: 10 μM; 2 mg/ml tubulin, 10% glycerol, 1 mM GTP, 37° C., OD340
Method: FIG. 5—Effect of the taccalonolides on purified porcine brain tubulin. […] Tubulin polymerization was monitored by turbidity measurement at OD340.
The ability of these new potent taccalonolides to interact directly with tubulin was assessed by incubating purified porcine brain tubulin at a concentration of 2 mg/ml in the presence of 10% glycerol and 1 mM GTP, which allows for a baseline level of tubulin polymerization that can be followed turbidimetrically (FIG. 5).

[5] = test system: MDA-MB-231 human breast tumors; assay: Antitumor activity against MDA-MB-231 tumors in nude mice; type: in vivo
Method: FIG. 6—Antitumor activity of taccalonolide AF. […] Tumor size was measured using calipers and volume calculated with the formula: Tumor volume (mm^3)=width (mm)×length (mm)×height (mm) and graphed as median tumor size for days 0-8.
The ability of taccalonolide AF to inhibit the growth of the aggressive human breast tumor MDA-MB-231 in a murine host was determined Taccalonolide AF was administered at a dose of 2.5 mg/kg on days 1 and 3.

[6] = test system: SK-OV-3/MDR-1-6/6 versus SK-OV-3 cells; assay: Relative resistance, P-glycoprotein expressing cell line pair; type: cell-based; conditions: P-glycoprotein expressing SK-OV-3 pair
Method: (§2) FIG. 7—Effect of the taccalonolides in drug resistant and sensitive cells. IC50 values for inhibition of cellular proliferation for taccalonolides AF and AJ were determined in drug sensitive and drug resistant cell lines. The HeLa cell pair evaluated the effect of βIII tubulin expression on cell sensitivity and the ability of compounds to overcome drug resistance mediated by βIII tubulin expression. The SK-OV-3 cell line pair was used to evaluate the effects of the expression of P-glycoprotein (Pgp) on cell sensitivity and the ability of compounds to overcome Pgp-mediated drug resistence. The effects of the taccalonolides on the drug senstive prostate cancer cell line PC-3 are also presented. IC50 values were calculated from an average of 3-4 independent experiments, each performed in triplicate.
(§3) The HeLa cervical cancer cell line, the SK-OV-3 ovarian cancer cell line and the PC-3 prostate cancer cell line were obtained from American Type Tissue Culture Collection (Manassas, Va.) and grown in Basal Media Eagle (BME) or RPMI 1640 medium (Invitrogen; Carlsbad, Calif.) supplemented with 10% fetal bovine serum (Hyclone; Logan, Utah) and 50 μg/ml gentamicin sulfate (Invitrogen). […]
(§4) The antiproliferative and cytotoxic effects of the taccalonolides were evaluated using the SRB assay (Skehan et al., 1990, Boyd and Paull, 1995) as previously described (Tinley et al., 2003). […]

WTβIII versus HeLa cells = assay: Relative resistance, βIII-tubulin expressing cell line pair; type: cell-based
Method: as §2, §3, §4

[7] = test system: human mammary epithelial cells; assay: Cytotoxicity to normal cells; type: cell-based; conditions: concentrations 5 to 100-fold their IC50 values in HeLa
[8] = cited from earlier work
[9] = test system: cell lines that overexpress Pgp; conditions: Pgp overexpressing cell lines; cited from earlier work
[10] = test system: cell lines that overexpress MRP7; conditions: MRP7 overexpressing cell lines; cited from earlier work
[11] = test system: doxorubicin- and paclitaxel-resistant Pgp-expressing tumor, Mam17/ADR; conditions: cited from earlier work
[12] = test system: isogenic HeLa-derived cell line that expresses the βIII isotype of tubulin; conditions: cited from earlier work
[13] = parent taccalonolide, read-out: IC50 (nM), Taccalonolide

IC50 (HeLa cells [1]; [13]): 20000 nM
SMILES: CC(=O)O[C@H]1C2[C@@H]([C@@H](O)[C@@H](O)[C@H]3C[C@@H]4O[C@@H]4[C@H](OC(C)=O)[C@]23C)[C@@H]2[C@@H](O)[C@@H]3[C@H]([C@H](C)C=C4OC(=O)[C@@](C)(O)[C@@]43C)[C@@]2(C)[C@H]1OC(C)=O (some centres unmarked) [TA-NaBH4-10]

IC50 (HeLa cells [1]; [13]): 7500 nM
SMILES: CC(=O)O[C@@H]1[C@H](O)[C@@H]2C([C@H](OC(C)=O)[C@H](OC(C)=O)[C@]3(C)[C@@H]4[C@@H]([C@H](O)[C@@H]23)[C@]2(C)C(=C[C@H]4C)OC(=O)[C@@]2(C)O)[C@]2(C)[C@@H]1C[C@@H]1O[C@@H]1[C@@H]2OC(C)=O (some centres unmarked) [TA-NaBH4-12]

SMILES: CC(=O)O[C@H]1C(=O)[C@H]2C[C@@H]3O[C@@H]3[C@H](OC(C)=O)[C@]2(C)C2[C@@H]1[C@@H]1[C@@H](O)[C@@H]3[C@H]([C@H](C)C=C4OC(=O)[C@@](C)(O)[C@@]43C)[C@@]1(C)[C@@H](OC(C)=O)[C@H]2OC(C)=O (some centres unmarked) [TB-AC-16]
IC50 (HeLa cells [1]; [13]): 40000 nM

SMILES: CC(=O)O[C@@H]1[C@H]2[C@H]3C([C@H](OC(C)=O)[C@H](OC(C)=O)[C@]2(C)[C@@H]2[C@@H]1[C@]1(C)C(=C[C@@]2(C)OO)OC(=O)[C@@]1(C)O)[C@]1(C)[C@H](C[C@@H]2O[C@@H]2[C@@H]1OC(C)=O)C(=O)[C@@H]3O (some centres unmarked) [Taccalonolide AC]
IC50 (HeLa cells [1]; Homo sapiens, parent taccalonolide, read-out: IC50 (nM), Taccalonolide): > 50000 nM
IC50 (HeLa cells [1]; Homo sapiens, read-out: IC50 value): > 50000 nM

SMILES: CC(=O)O[C@@H]1[C@H]2[C@H]3[C@H]([C@H](OC(C)=O)[C@H](OC(C)=O)[C@]2(C)[C@H]2[C@H](C)[C@H]4O[C@]45OC(=O)[C@@](C)(O)[C@]5(C)[C@@H]12)[C@]1(C)[C@H](C[C@@H]2O[C@@H]2[C@@H]1OC(C)=O)C(=O)[C@@H]3O [Taccalonolide AF]
fold increase in potency on epoxidation at C22-C23 (HeLa cells [1]; HeLa IC50): 234 fold
bundling of interphase microtubules (HeLa cells [2]): formation of thick bundled microtubule tufts
effect on mitotic spindles (HeLa cells [3]): mitotic arrest of cells with multiple abnormal mitotic spindles
rate and extent of tubulin polymerization [4]: dramatically increased
antitumor activity compared to paclitaxel positive control ([5]; 2.5 mg/kg days 1 and 3 vs 10 mg/kg paclitaxel days 1, 3 and 5, first week of treatment): greater antitumor activity than the positive control
antitumor activity compared to vehicle treated controls ([5]; 2.5 mg/kg on days 1 and 3, preliminary): sufficient to observe antitumor activity
relative resistance (IC50 resistant line / IC50 parental line) [6]: much lower than paclitaxel
relative resistance (IC50 resistant line / IC50 parental line) (WTβIII versus HeLa cells): much lower than paclitaxel
cytotoxicity of normal cells [7]: No cytotoxicity

SMILES: CC(=O)O[C@H]1[C@H]2[C@H]([C@@H]3[C@@H](O)[C@@H]4[C@H]([C@H](C)[C@@H]5O[C@@]56OC(=O)[C@@](C)(O)[C@]46C)[C@@]3(C)[C@H]1OC(C)=O)[C@@H](O)C(=O)[C@H]1C[C@@H]3O[C@@H]3[C@H](OC(C)=O)[C@]21C [Taccalonolide AJ]
fold increase in potency on epoxidation at C22-C23 (HeLa cells [1]; HeLa IC50): 743 fold
bundling of interphase microtubules (HeLa cells [2]): formation of thick bundled microtubule tufts
effect on mitotic spindles (HeLa cells [3]): mitotic arrest of cells with multiple abnormal mitotic spindles
rate and extent of tubulin polymerization [4]: dramatically increased
relative resistance (IC50 resistant line / IC50 parental line) [6]: much lower than paclitaxel
relative resistance (IC50 resistant line / IC50 parental line) (WTβIII versus HeLa cells): much lower than paclitaxel
cytotoxicity of normal cells [7]: No cytotoxicity

SMILES: CC(=O)O[C@@H]1[C@H]2[C@H]3[C@H]([C@H](OC(C)=O)[C@H](OC(C)=O)[C@]2(C)[C@@H]2[C@@H]1[C@]1(C)C(=C[C@H]2C)OC(=O)[C@@]1(C)O)[C@]1(C)[C@H](C[C@@H]2O[C@@H]2[C@@H]1OC(C)=O)C(=O)[C@@H]3O [Taccalonolide A]
in vivo antitumor activity [8]: have in vivo antitumor activity
efficacy in vitro [9]: effective
efficacy in vitro [10]: effective
activity in vivo [11]: highly active

SMILES: CC(=O)O[C@H]1[C@H]2[C@H]([C@@H]3[C@@H](O)[C@@H]4[C@H]([C@H](C)C=C5OC(=O)[C@@](C)(O)[C@@]54C)[C@@]3(C)[C@H]1OC(C)=O)[C@@H](O)C(=O)[C@H]1C[C@@H]3O[C@@H]3[C@H](OC(C)=O)[C@]21C [Taccalonolide B]
efficacy in vitro [9]: effective
efficacy in vitro [10]: effective

SMILES: CC(=O)O[C@@H]1[C@H]2[C@@H]3[C@@H](O)C(=O)[C@H]4C[C@@H]5O[C@@H]5[C@H](OC(C)=O)[C@]4(C)[C@H]3C[C@H](OC(C)=O)[C@]2(C)[C@@H]2[C@@H]1[C@]1(C)C(=C[C@H]2C)OC(=O)[C@@]1(C)O [Taccalonolide E]
in vivo antitumor activity [8]: have in vivo antitumor activity
efficacy in vitro [9]: effective
efficacy in vitro [10]: effective
activity in vivo [11]: highly active

SMILES: CC(=O)O[C@H]1[C@@H]2[C@H]([C@H](C)C=C3OC(=O)[C@@](C)(O)[C@@]32C)[C@]2(C)[C@@H]1C1=C(O)C(=O)[C@H]3C[C@@H]4O[C@@H]4[C@H](OC(C)=O)[C@]3(C)[C@H]1[C@H](OC(C)=O)[C@@H]2OC(C)=O [Taccalonolide H2, reference compound]
fold more potent than taccalonolide A (HeLa cells [1]; HeLa IC50): 7.4 fold

SMILES: CC(=O)O[C@H]1C[C@H]2[C@H]([C@@H]3[C@@H](O)[C@@H]4[C@H]([C@H](C)C=C5OC(=O)[C@@](C)(O)[C@@]54C)[C@]31C)[C@@H](O)C(=O)[C@H]1C[C@@H]3O[C@@H]3[C@H](OC(C)=O)[C@@]12C [Taccalonolide N]
in vivo antitumor activity [8]: have in vivo antitumor activity
efficacy in vitro [9]: effective
efficacy in vitro [10]: effective

SMILES: CC(=O)O[C@@]12CO[C@@H]1C[C@H](O)[C@@]1(C)C(=O)[C@H](O)C3=C(C)[C@@H](OC(=O)[C@H](O)[C@@H](NC(=O)OC(C)(C)C)c4ccccc4)C[C@@](O)([C@@H](OC(=O)c4ccccc4)[C@H]21)C3(C)C [docetaxel]
sensitivity of βIII-tubulin-overexpressing cell line compared with parental HeLa cells [12]: less sensitive

SMILES: C/C(=C\c1csc(C)n1)[C@@H]1C[C@@H]2O[C@]2(C)CCC[C@H](C)[C@H](O)[C@@H](C)C(=O)C(C)(C)[C@@H](O)CC(=O)O1 [epothilone B]
sensitivity of βIII-tubulin-overexpressing cell line compared with parental HeLa cells [12]: less sensitive

SMILES: CC[C@]1(O)C[C@@H]2CN(CCc3c([nH]c4ccccc34)[C@@](C(=O)OC)(c3cc4c(cc3OC)N(C)[C@H]3[C@@](O)(C(=O)OC)[C@H](OC(C)=O)[C@]5(CC)C=CCN6CC[C@]43[C@@H]65)C2)C1 [vinblastine]
sensitivity of βIII-tubulin-overexpressing cell line compared with parental HeLa cells [12]: less sensitive
